According to patent US20120022000A1, “USE OF A PEPTIDE IN THE TREATMENT OR PREVENTION OF METASTASIS” (UNIVERSITE DE LAUSANNE, priority 2009, published 2012):
Marks after values point to notes of the source that are not given here.

Legend:
[1] = tested on: 4T1-luc2 cells; experiment: In vivo metastases model (orthotopic mammary fatpad 4T1-luc2 tumor); parameters: species or system nude mice
Description: 100,000 4T1-luc2 cells were injected orthotopically into the mammary fatpad of nude mice. Four groups of eight nude mice were then treated with or without 0.16 mg TAT-RasGAP317-326 per kg of mouse on the first, third and fifth day of the week during 28 days. The tumor volumes were measured with a caliper at the indicated time points and were calculated according to the formula described in the “MATERIAL AND METHODS” section. A repeated measure ANOVA was performed and no differences were found between the two groups.
Nude mice were injected into the mammary fatpads with 100,000 murine mammary cancer 4T1-luc2 cells that constitutively express the firefly luciferase. For the injection, the mouse skin was incised in the pelvic area to reach the fatpads, and the wounds were closed after injection with surgery hooks. The cells were injected in 100 μl Matrigel (BD Biosciences, 20% in PBS). Tumor volumes were quantified as follow: The tumor width and length were measured with a caliper and the tumor volume was calculated according to the formula tumor volume [mm3]=(12*L)*π/6, where 1 is the smallest measure between the width and the length (in mm), and L the longest (in mm) In order to quantify metastases, the mice were injected i.p. with 200 μl D-Luciferin Firefly (15 mg/ml in PBS) in PBS, Biosynth, No. L-8220) and luminescence was measured 10 minutes afterwards with an IVIS Lumina 2 apparatus (Xenogen). Metastases were assessed at the indicated time points in vivo and at the last day (28 days after tumor injection) ex vivo for the following organs: lung, liver and axillary and brachial lymph nodes. For the ex vivo measurements, the mice were injected with luciferin as described above, and sacrificed 10 minutes later to excise organs. The light emitted by the organs was measured in a Luciferin bath (150 μg/ml D-Luciferin Firefly in 2 ml PBS per organ). Luminescence is presented as the number of photons emitted per second (p/s).
28 days after cancer cells injection, the same mice than those in FIG. 5 were subjected to ex vivo metastases luminescence measurements. The lung, liver, axillary and brachial lymph node (LN) metastases were quantified by luminescence after luciferine i.p. injection. Organs emitting light were considered as bearing metastases. The asterisk denotes a significant difference against the control treatment (0 mg/kg TAT-RasGAP317-326) (p=0.0238 after an Fisher's Exact Test).

[2] = target: T1, trypsin (Sus scrofa, UniProt P00761); experiment: Trypsin pre-incubated with peptide, cell detachment; conditions: trypsin pre-incubated one hour with peptide; data not shown
T1 construct: purchased Sigma T3924
T1 sequence (P00761 9-231): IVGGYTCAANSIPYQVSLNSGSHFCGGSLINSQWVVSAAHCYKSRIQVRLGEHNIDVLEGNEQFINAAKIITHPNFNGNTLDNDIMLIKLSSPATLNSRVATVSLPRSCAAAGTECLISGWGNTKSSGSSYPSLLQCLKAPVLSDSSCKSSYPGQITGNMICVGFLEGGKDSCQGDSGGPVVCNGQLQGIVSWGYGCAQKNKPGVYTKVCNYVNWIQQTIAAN
Text: TAT-RasGAP317-326 could increase adherence and block migration by acting in the cellular environment or at the surface of cells. Alternatively, these effects could be induced only once the peptide has entered cells. The following evidence favors the second possibility.

[3] = tested on: U2OS cells; experiment: Immuno-cytochemistry of actin and focal adhesions (phospho-FAK); format: cell-based; conditions: 13 μM over-night (FIG. 6)
Description: FIG. 6: Actin and focal adhesion changes in TAT-RasGAP317-326-treated cells. 100,000 U2OS cells were cultured on coverslips for 24 hours and then treated with 13 μM TAT-RasGAP317-326, 13 μM TAT or left untreated (control) over-night. The cells were then fixed with 2% PFA, and peinieabilized with PBS Triton-X100 0.2%. The nuclei were stained with Hoechst 33342 and actin with Alexa Fluor 488 phalloidin. Focal adhesions were stained with an anti-phospho Tyr397 FAK. Representative images are shown.
100,000 U2OS cells were grown on coverslips overnight, and then treated as described in the figures. The cells were then fixed and the nuclei were stained in PBS containing 2% paraformaldehyde (weight/vol) (Acros Organics, catalog no: 30525-89-4) and 10 μg/ml Hoechst 33342 (Molecular Probe) for 15 minutes. The following steps were performed at room temperature in the absence of light. The cells were washed twice in PBS, permeabilized 10 minutes in PBS, 0.2% Triton X-100, washed twice in PBS, neutralized 15 minutes in DMEM, 10% FBS, and washed twice in PBS. The coverslips were then incubated 20 minutes in PBS 1.65 μM Alexa Fluor 488 phalloidin (Invitrogen, A12379). After a rapid wash in PBS, they were incubated with a polyclonal rabbit anti-phospho-FAK (tyrosine 397) primary antibody (1:50 dilution in DMEM, 10% FBS; Cell Signaling, catalog no: 3283) for 1 hour. After a rapid wash in PBS, the coverslips were incubated 1 hour with a donkey CyTM-anti-rabbit secondary antibody (1:500 dilution in DMEM, 10% FBS; Jackson ImmunoResearch, no. 711-165-152). The slides were finally washed twice in PBS and mounted in Vectashield mounting medium (Vector laboratories Inc.). Images were taken with a Zeiss Axioplan 2 imaging microscope.

[4] = peptide by itself; Michod et al., 2004; 2009; cited from earlier work
[5] = tested on: U2OS cells; experiment: Proliferation assay; format: cell-based; conditions: 13 μM (FIG. 3)
Description: 30,000 U2OS cells were seeded in 3.5 cm-plates. The cell number in the plates were then determined 24 and 48 hours later as described in FIG. 1, panel (a). The graph represents the number of cells per mm2 (mean±95% CI of 3 independent experiments). No significant difference between the growth curves could be detected (repeated measures ANOVA). 30,000 U2OS cells were seeded in 3.5 cm plates and cultured overnight. The cells were either treated with 13 μM TAT, 13 μM TAT-RasGAP317-326 or left untreated. Pictures were taken after 0 h, 24 h and 72 hours and cells were counted. The number of cells was then adjusted per mm2.

[6] = tested on: U2OS cells; experiment: Adhesion assay (trypsinization assay) with peptides; format: cell-based; conditions: for cell adherence (resistance to trypsin): U2OS cells, 8 hours (FIG. 4A)
Description: (a) U2OS cells were cultured until confluency and treated during 0 h, 1 h, 3 h, 8 h and 14 h with 13 μM TAT, 13 μM TAT-RasGAP317-326 or without treatment. The cells were then trypsinized during 5 minutes (or not trypsinized), washed with PBS and stained with GIEMSA. Four pictures were taken per plate using a Zeiss Axioplan 2 microscope equipped with a 10× objective and the number of cells per surface area was determined. Representative images are shown. The graph represents the number of cells per mm^2 (mean±95% CI of 3 independent experiments). Scale bar=100 μm. (b) Trypsinization assay on cancerous cell lines (U2OS, HeLa, 4T1, HCT116, SAOS) and non-cancerous cell lines (HEK293T and HaCaT). Cells were treated and analyzed as in panel (a). Values for control and TAT treatments are shown literally as they were too low to be seen on the graphs. (c) Reversibility of the TAT-RasGAP317-326 induced adhesion. Confluent U2OS cells were treated during 24 h with 13 μM TAT, 13 μM TAT-RasGAP317-326 or not treated. The cells were then washed and incubated in culture medium without peptides for the indicated periods of time. Cells were analyzed as in panel (a).
(§1) (a) RasGAP317-326 without cell-permeation sequences is not able to render cells resistant to trypsin. 300,000 U2OS cells were cultured overnight in 3.5 cm plates and then treated during 8 hours with the indicated peptides (the concentration of each peptide was 13 μM). The cells were then subjected to a trypsinization assay. (b) 2×10^6 HEK293T cells were cultured overnight in 10 cm plates and transfected with empty vector (pcDNA3) or vectors encoding HA-tagged versions of fragment N2 or the 317-326 sequence of RasGAP. One day later, the cells were subjected to a trypsinization test. Results in (a) and (b) correspond to the number of cells per mm2 (mean±95% CI of 3 independent experiments). Some values are shown literally as they were too low to be seen on the graphs.
5×10^5 cells were grown overnight and then incubated with peptides or transfected (see the figures for the specific conditions used). The treated cells were washed with phosphate buffered saline (PBS) and then incubated with trypsin-EDTA solution (Sigma; catalog no: T3924; […]) during 5 minutes. The plates were gently hand-rocked 2 and 4 minute after trypsin addition. Detached cells were removed with a PBS wash and the remaining attached cells were dried, incubated in ethanol during 10 minutes, dried again, and finally stained with GIEMSA (Invitrogen) for 45 minutes. Four and six phase contrast pictures were taken (Zeiss Axioplan, 10× objective) for 3.5 cm-plates and 10 cm-plates, respectively. The number of cells per mm2 was then determined.

[7] = tested on: U2OS, HeLa, HCT116 and HaCaT; experiment: Wound-healing experiment; format: cell-based; conditions: 13 μM peptide, HCT116, HaCaT (FIG. 2)
Description: Cells were cultured until confluency and a wound in the cell layer was done with a yellow tip. The cells were then left untreated or incubated 24 hours with 13 μM of TAT or TAT-RasGAP317-326 peptides. Pictures were taken just after wounding (0 hour) and at the indicated times. Results correspond to the width of the wound (mean±95% CI of 4 independent experiments). Asterisks denote significant differences between the control and the other conditions at a given time point (t-test after Bonferroni correction). Bar=100 μm. Cells were grown until confluency and a wound in the cell layer was done with a yellow tip. The cells were washed once with PBS to remove debris and then left untreated or incubated 24 hours and 48 hours with 13 μM of TAT or TAT-RasGAP317-326 peptides (in DMEM+10% FBS). Pictures were taken just after wounding (0 h) and at the indicated times. The wound widths were measured as described earlier (Bulat et al., 2009).

[8] = tested on: HEK293T cells; experiment: Adhesion assay (trypsinization test) after transfection; format: cell-based; conditions: HEK293T cells transfected with HA-tagged constructs, one day (FIG. 4B)
Description: as §1
2×10^6 HEK293T cells were cultured overnight in 10 cm-culture plates and transfected with 18 μg of the plasmid of interest and 2 μg of pEGFP-C1 (a green fluorescent protein-encoding plasmid from Clontech) using the calcium-phosphate method (Jordan et al., 1996). Briefly, plasmids were diluted in 450 μl water and mixed with 50 μl CaCl2 2.5M during 30 minutes. […]
5×10^5 cells were grown overnight and then incubated with peptides or transfected (see the figures for the specific conditions used). […] The number of cells per mm2 was then determined.

[9] = 0.160 mg/kg, 28 days after cell injection, ex vivo luminescence

For “GRKKRRQRRRGGWMWVTNLRTD [TAT-RasGAP317-326, RasGAP-derived peptide conjugated to HIV-TAT48-57 through two glycine residues]”, the primary tumor growth ([1]; 0.16 mg per kg on first, third and fifth day of the week during 28 days, nude mice (FIG. 5)) was “does not affect primary tumor growth”, the “mice with metastases in the indicated organs vs total number of mice: Liver” value [1, 9] was 3/8 and the “mice with metastases in the indicated organs vs total number of mice: Lung” value [1, 9] was 2/8*. For the same molecule, the “mice with metastases in the indicated organs vs total number of mice: LN” value ([1]; 0.160 mg/kg, 28 days after cell injection, ex vivo luminescence, axillary and brachial lymph nodes) was 3/8, the “formation of metastases in other organs” value ([1]; 28 days, liver, lymph nodes) was “apparently no effect” and the lung metastases ([1]; 28 days, p=0.024, Fisher's Exact Test) was “significant decrease in lung metastases”. The “trypsin inhibitory effect (ability of trypsin to detach cells)” value [2] was “did not decrease the ability of trypsin to detach cells”, the “actin and focal adhesion localization” value [3] was “major changes in actin and focal adhesion localization” and the “cortical actin stress fibers” value [3] was “strong increase”. For the same molecule, the “location of focal adhesions” value [3] was “mainly found at the cell's periphery”, the ventral stress fibers [3] was “almost completely disappeared” and the cell survival [4] was “does not, by itself, affect cell survival”. The cell population growth [5] was “does not modulate cell population growth”, the “ability to increase cell adherence when transcription or translation is blocked” value ([6]; 1 μg/ml actinomycin D or 30 μg/ml cycloheximide, data not shown) was “None of the drugs affected the ability” and the cell adhesion ([6]; 13 μM peptide, trypsinization 5 minutes, U2OS and other cell lines (FIG. 1)) was “induces cell adhesion”. The “ability of the cells to fill wounds (cell migration)” value [7] was “blocked the ability of the cells to fill wounds”.

With “WMWVTNLRTD (listed as Homo sapiens) [RasGAP317-326]” the “cell adherence (resistance to trypsin)” value ([6]; 13 μM peptide) was “unable to increase cell adherence”.

In the case of “GRKKRRQRRR [TAT, cell-permeable carrier peptide used as control, reference compound]”, the “actin and focal adhesion localization” value [3] is reported as “did not exhibit any difference compared to untreated cells”.

For “RRRRRRRRRGGWMWVTNLRTD [R9—RasGAP317-326, RasGAP317-326 conjugated to a 9 arginine peptide]”, the “cell adherence (resistance to trypsin)” value ([6]; 13 μM peptide) was “functions as a cell adherence promoting agent”.

B1: RasGAP Fragment N2: HA-tagged human RasGAP amino acid 158-455 sequence, expressed from plasmid HA-N2.dn3 (protein, UniProt P20936 158-455, looked up, fragment)
chain: SLDGPEYEEEEVAIPLTAPPTNQWYHGKLDRTIAEERLRQAGKSGSYLIRESDRRPGSFVLSFLSQMNVVNHFRIIAMCGDYYIGGRRFSSLSDLIGYYSHVSCLLKGEKLLYPVAPPEPVEDRRRVRAILPYTKVPDTDEISFLKGDMFIVHNELEDGWMWVTNLRTDEQGLIVEDLVEEVGREEDPHEGKIWFHGKISKQEAYNLLMTVGQVCSFLVRPSDNTPGDYSLYFRTNENIQRFKICPTPNNQFMMGGRYYNSIGDIIDHYRKEQIVEGYYLKEPVPMQDQEQVLNDTVD
modifications: HA tag
With B1 the “cell adherence after transfection” value [8] was “Increases Cell Adherence”.
